Reference: patent publication US4468511A, “C-20- And C-23-Modified macrolide derivatives” (Eli Lilly and Company, priority 1983, dated 1984)
≈ marks a conversion by molar mass, not a printed value. Read-outs that look alike come from different tables or passages of the source.

Key:
[1] = tested on: Streptococcus pyogenes C203; experiment: Protection of mice experimentally infected with S. pyogenes C203; format: in vivo
Experimental: Some of the derivatives of this invention have shown in vivo antimicrobial activity against experimentally-induced infections in laboratory animals. When two doses of test compound were administered to mice experimentally infected with S. pyogenes C203, the activity observed was measured as an ED50 value [effective dose in mg/kg to protect 50% of the test animals: see Warren Wick, et al., J. Bacteriol. 81, 233-235 (1961)].

[2] = tested on: Staphylococcus aureus S13E; experiment: microbe, parasite or virus in culture; format: cell-based
Experimental: (§1) The MIC's in Table II were determined by standard agar-dilution assays. The MIC's in Table III were obtained using a conventional broth-dilution microtiter test.

[3] = tested on: Staphylococcus epidermidis EPI1; experiment: microbe, parasite or virus in culture; format: cell-based; conditions: Staphylococcus epidermidis, EPI1
Experimental: as §1

[4] = tested on: Pasteurella hemolytica 23C; experiment: MIC, conventional broth-dilution microtiter test; format: cell-based; conditions: Pasteurella, 23C
How it was run: (§2)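 The Klebsiella MIC was obtained by agar-dilution assay. Other organisms (Pasteurella hemolytica, Pasteurella multocida, Mycoplasma gallisepticum) were tested by conventional broth microdilution.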

[5] = tested on: Mycoplasma gallisepticum 34159; experiment: MIC, conventional broth-dilution microtiter test; format: cell-based; conditions: Mycoplasmoides gallisepticum
How it was run: as §2

[6] = tested on: Pasteurella hemolytica 41D; experiment: MIC, conventional broth-dilution microtiter test; format: cell-based; conditions: Pasteurella, 41D
How it was run: as §2

[7] = tested on: Pasteurella multocida 22A; experiment: MIC, conventional broth-dilution microtiter test; format: cell-based; conditions: Pasteurella multocida, 22A
How it was run: as §2

[8] = tested on: Mycoplasma gallisepticum 41313; experiment: MIC, conventional broth-dilution microtiter test; format: cell-based; conditions: Mycoplasmoides gallisepticum
How it was run: as §2

[9] = tested on: Pasteurella hemolytica 22C; experiment: MIC, conventional broth-dilution microtiter test; format: cell-based; conditions: Pasteurella, 22C
How it was run: as §2

[10] = tested on: Pasteurella multocida 17E; experiment: MIC, conventional broth-dilution microtiter test; format: cell-based; conditions: Pasteurella multocida, 17E
How it was run: as §2

Staphylococcus aureus = experiment: MIC, conventional broth-dilution microtiter test; format: cell-based
Experimental: (§3) Certain of the derivatives are active against some gram-negative bacteria, such as Pasteurella species. The MIC's in Table II were determined by standard agar-dilution assays. The MIC's in Table III were obtained using a conventional broth-dilution microtiter test.

Mycoplasma hyorhinis = experiment: MIC, conventional broth-dilution microtiter test; format: cell-based
How it was run: (§4)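 Two formats were used. Broth dilution in microtiter plates served for Pasteurella and Mycoplasma, while agar dilution served for Klebsiella.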

[11] = tested on: Pasteurella multocida 40G; experiment: MIC, conventional broth-dilution microtiter test; format: cell-based; conditions: Pasteurella multocida, 40G
How it was run: as §2

Mycoplasma synoviae = experiment: MIC, conventional broth-dilution microtiter test; format: cell-based; conditions: Mycoplasmopsis synoviae
How it was run: as §4

[12] = tested on: Pasteurella multocida 68C; experiment: MIC, conventional broth-dilution microtiter test; format: cell-based; conditions: Pasteurella multocida, 68C
How it was run: as §2

[13] = tested on: Pasteurella multocida 60A; experiment: MIC, conventional broth-dilution microtiter test; format: cell-based; conditions: Pasteurella multocida, 60A
How it was run: as §2

Streptococcus sp. 80 = experiment: MIC, conventional broth-dilution microtiter test; format: cell-based; conditions: Streptococcus, SP.80
Experimental: as §3

Mycoplasma gallisepticum = experiment: MIC, conventional broth-dilution microtiter test; format: cell-based; conditions: Mycoplasmoides gallisepticum
How it was run: as §2

[14] = tested on: Streptococcus Group D X66; experiment: MIC, standard agar-dilution assay; format: cell-based
Experimental: as §3

Escherichia coli TEM = experiment: MIC, standard agar-dilution assay; format: cell-based; conditions: Escherichia coli
How it was run: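 Antibacterial activity toward the gram-negative organism Escherichia coli was assessed by conventional agar dilution. The MIC, reported in ug/mL, is the minimum compound concentration on agar that prevents growth.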

[15] = tested on: Klebsiella pneumoniae KAE; experiment: MIC, standard agar-dilution assay; format: cell-based
How it was run: as §2

[16] = tested on: Streptococcus pyogenes C203; experiment: MIC, standard agar-dilution assay; format: cell-based
Experimental: as §3

[17] = tested on: Staphylococcus aureus V41; experiment: MIC, standard agar-dilution assay; format: cell-based; conditions: Staphylococcus aureus, V41
Experimental: as §3

[18] = tested on: Staphylococcus aureus X1.1; experiment: MIC, standard agar-dilution assay; format: cell-based; conditions: Staphylococcus aureus, X1.1
How it was run: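 A standard agar-dilution assay was used to test compounds against the Staphylococcus aureus isolate X1.1. Bacterial growth on agar with different compound concentrations was assessed, and the minimum inhibitory concentration was recorded in ug/mL.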

[19] = tested on: Streptococcus pneumoniae Park I; experiment: MIC, standard agar-dilution assay; format: cell-based; conditions: Streptococcus pneumoniae
Experimental: as §3

[20] = tested on: Streptococcus pyogenes 9960; experiment: MIC, standard agar-dilution assay; format: cell-based
Experimental: as §3

Escherichia coli EC14 = experiment: MIC, standard agar-dilution assay; format: cell-based
Experimental: as §3

[21] = tested on: Klebsiella pneumoniae X26; experiment: MIC, standard agar-dilution assay; format: cell-based
How it was run: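 Agar plates containing graded compound levels gave the Klebsiella value. Graded broth dilutions in microtiter plates gave the Pasteurella and Mycoplasma values.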

[22] = tested on: Haemophilus influenzae C.L.; experiment: MIC, standard agar-dilution assay; format: cell-based
Experimental: as §1

[23] = tested on: Staphylococcus aureus X400; experiment: MIC, standard agar-dilution assay; format: cell-based; conditions: Staphylococcus aureus, X400
Experimental: as §1

[24] = tested on: Staphylococcus epidermidis EPI2; experiment: MIC, standard agar-dilution assay; format: cell-based; conditions: Staphylococcus epidermidis, EPI2
Experimental: as §1

[25] = tested on: Haemophilus influenzae 76; experiment: MIC, standard agar-dilution assay; format: cell-based; conditions: Haemophilus influenzae, 76
Experimental: as §1

Pasteurella multocida = experiment: Pasteurella infection in one-day old chicks; format: in vivo; conditions: subcutaneous, 30 mg/kg × 2, 1 and 4 hours post-challenge
Experimental: Certain of the formula 1 compounds of this invention have also shown in vivo activity against infections induced by gram-negative bacteria. Table V summarizes the results of tests in which illustrative compounds were evaluated against a Pasteurella infection in one-day old chicks. The compounds were administered parenterally after challenge of the chicks with Pasteurella multocida (0.1 ml of a 10^-4 dilution of a twenty-hour tryptose broth culture of an avian P. multocida given subcutaneously). In these tests, unless indicated otherwise, all non-medicated infected chicks died within 24 hours of Pasteurella challenge. In the tests summarized in Table V, the compounds were administered by subcutaneous injection at a dosage of 30 mg/kg, 1 and 4 hours post-challenge of the chicks with P. multocida.

CCC1OC(=O)CC(O)C(C)C(OC2OC(C)C(O)C(N(C)C)C2O)C(CCOC(=O)Cc2ccccc2)CC(C)C(=O)C=CC(C)=CC1CO (centres unmarked) [Compound 1, 20-O-Phenylacetyl-20-dihydro-OMT] gave an ED50 ([1]; C203, po, read-out: ED50 Oral) of over 100 mg/kg, an ED50 ([1]; C203, sc, read-out: ED50 Subcutaneous) of over 30 mg/kg and an MIC [2] of 1 µg/mL (≈ 1.39 µM). It also gave an MIC [3] of 0.5 µg/mL (≈ 0.696 µM), an MIC [4] of 12.5 µg/mL (≈ 17.4 µM) and an MIC [5]; 34159 of 6.25 µg/mL (≈ 8.71 µM). For the same molecule, the MIC [6] was 12.5 µg/mL (≈ 17.4 µM), the MIC [7] was 25 µg/mL (≈ 34.8 µM) and the MIC [8]; 41313 was 50 µg/mL (≈ 69.6 µM). The MIC [9] was 25 µg/mL (≈ 34.8 µM), the MIC [10] was 12.5 µg/mL (≈ 17.4 µM) and the MIC (Staphylococcus aureus) was 3.12 µg/mL (≈ 4.35 µM). It also gave an MIC (Mycoplasma hyorhinis; Mycoplasma) of over 50 µg/mL, an MIC [11] of 25 µg/mL (≈ 34.8 µM) and an MIC (Mycoplasma synoviae) of 50 µg/mL (≈ 69.6 µM). The MIC [12] was 6.25 µg/mL (≈ 8.71 µM), the MIC [13] was 25 µg/mL (≈ 34.8 µM) and the MIC (Streptococcus sp. 80) was 3.12 µg/mL (≈ 4.35 µM). For the same molecule, the MIC (Mycoplasma gallisepticum) was 3.12 µg/mL (≈ 4.35 µM), the MIC [14] was 2 µg/mL (≈ 2.79 µM) and the MIC (Escherichia coli TEM) was 16 µg/mL (≈ 22.3 µM). For the same molecule, the MIC ([15]; Klebsiella pneumoniae) was over 128 µg/mL, the MIC ([16]; Streptococcus pyogenes, C203) was 1 µg/mL (≈ 1.39 µM) and the MIC [17] was 1 µg/mL (≈ 1.39 µM). The MIC [18] was 1 µg/mL (≈ 1.39 µM), the MIC [19] was 0.5 µg/mL (≈ 0.696 µM) and the MIC [20]; 9960 was 2 µg/mL (≈ 2.79 µM). It also gave an MIC (Escherichia coli EC14; Escherichia coli, EC14) of 64 µg/mL (≈ 89.1 µM), an MIC ([21]; Klebsiella pneumoniae, X26) of 4 µg/mL (≈ 5.57 µM) and an MIC ([22]; Haemophilus influenzae) of 16 µg/mL (≈ 22.3 µM). It also gave an MIC [23] of 2 µg/mL (≈ 2.79 µM), an MIC [24] of 1 µg/mL (≈ 1.39 µM) and an MIC [25] of 16 µg/mL (≈ 22.3 µM). The “Number of Deaths/Number Treated” value (Pasteurella multocida) was 9/10.

Work on CCC1CC(C)C(=O)C=CC(C)=CC(CN2CCCCCCC2)C(CC)OC(=O)CC(O)C(C)C1OC1OC(C)C(O)C(N(C)C)C1O (centres unmarked) [Compound 43, 23-Octahydroazocin-1-yl-20,23-dideoxy-20-dihydro-OMT] yielded an ED50 ([1]; C203, po, read-out: ED50 Oral) of over 100 mg/kg, an ED50 ([1]; C203, sc, mice, subcutaneous, mg/kg × 2, doses given 1 and 4 hours postinfection, read-out: ED50 Subcutaneous) of over 12.5 mg/kg and an MIC [2] of 0.5 µg/mL (≈ 0.736 µM). For the same molecule, the MIC [3] was 0.5 µg/mL (≈ 0.736 µM), the MIC [4] was 1.56 µg/mL (≈ 2.3 µM) and the MIC ([5]; broth-dilution microtiter, Mycoplasma gallisepticum 34159, Resistant strain, read-out: MIC) was over 50 µg/mL. It also gave an MIC [6] of 1.56 µg/mL (≈ 2.3 µM), an MIC [7] of 1.56 µg/mL (≈ 2.3 µM) and an MIC ([8]; broth-dilution microtiter, Mycoplasma gallisepticum 41313, Resistant strain, read-out: MIC) of over 50 µg/mL. The MIC [9] was 0.78 µg/mL (≈ 1.15 µM), the MIC [10] was 0.78 µg/mL (≈ 1.15 µM) and the MIC (Staphylococcus aureus; broth-dilution microtiter, read-out: MIC) was 0.39 µg/mL (≈ 0.574 µM). For the same molecule, the MIC (Mycoplasma hyorhinis; broth-dilution microtiter, Mycoplasma hyorhinis, read-out: MIC) was 50 µg/mL (≈ 73.6 µM), the MIC [11] was 1.56 µg/mL (≈ 2.3 µM) and the MIC (Mycoplasma synoviae; broth-dilution microtiter, Mycoplasma synoviae, read-out: MIC) was over 50 µg/mL. For the same molecule, the MIC [12] was 1.56 µg/mL (≈ 2.3 µM), the MIC [13] was 0.78 µg/mL (≈ 1.15 µM) and the MIC (Streptococcus sp. 80) was 0.78 µg/mL (≈ 1.15 µM). For the same molecule, the MIC (Mycoplasma gallisepticum) was 0.78 µg/mL (≈ 1.15 µM), the MIC [14] was 1 µg/mL (≈ 1.47 µM) and the MIC (Escherichia coli TEM) was 16 µg/mL (≈ 23.6 µM). For the same molecule, the MIC ([15]; agar-dilution, Klebsiella pneumoniae KAE, read-out: MIC) was over 128 µg/mL, the MIC ([16]; agar-dilution, Streptococcus pyogenes C203, read-out: MIC) was 0.12 µg/mL (≈ 0.177 µM) and the MIC [17] was 0.5 µg/mL (≈ 0.736 µM). It also gave an MIC [18] of 0.5 µg/mL (≈ 0.736 µM), an MIC [19] of 1 µg/mL (≈ 1.47 µM) and an MIC ([20]; agar-dilution, Streptococcus 9960, read-out: MIC) of 2 µg/mL (≈ 2.95 µM). For the same molecule, the MIC (Escherichia coli EC14; agar-dilution, Escherichia coli EC14, read-out: MIC) was over 128 µg/mL, the MIC ([21]; agar-dilution, Klebsiella pneumoniae X26, read-out: MIC) was 4 µg/mL (≈ 5.89 µM) and the MIC ([22]; agar-dilution, Haemophilus influenzae C.L., Ampicillin-sensitive strain, read-out: MIC) was 4 µg/mL (≈ 5.89 µM). For the same molecule, the MIC [23] was 1 µg/mL (≈ 1.47 µM), the MIC [24] was 0.25 µg/mL (≈ 0.368 µM) and the MIC [25] was 8 µg/mL (≈ 11.8 µM). For the same molecule, the “Number of Deaths/Number Treated” value (Pasteurella multocida) was 8/10.
